In general, IC50 refers to the midpoint of a concentration-inhibition curve.

The assay has as its target T1, recombinant EphB4 (Homo sapiens, UniProt P54760).
T1 construct: amino acids 563-987; Swiss-Prot Acc; No. P54760; purchased ProQinase GmbH 0178-0000-3
T1 sequence (P54760 563-987): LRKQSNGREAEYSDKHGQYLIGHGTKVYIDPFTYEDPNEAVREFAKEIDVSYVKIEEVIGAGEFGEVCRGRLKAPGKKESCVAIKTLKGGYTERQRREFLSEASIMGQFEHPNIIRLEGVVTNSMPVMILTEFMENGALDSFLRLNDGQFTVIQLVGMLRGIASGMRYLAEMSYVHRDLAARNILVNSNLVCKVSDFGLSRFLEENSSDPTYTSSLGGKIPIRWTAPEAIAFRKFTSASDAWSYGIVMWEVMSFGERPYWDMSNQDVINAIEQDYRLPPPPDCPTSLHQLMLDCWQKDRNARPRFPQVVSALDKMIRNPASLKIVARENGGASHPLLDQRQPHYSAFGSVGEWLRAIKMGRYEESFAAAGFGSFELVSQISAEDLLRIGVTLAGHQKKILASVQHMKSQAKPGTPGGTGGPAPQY
The assay is described as follows: In vitro EphB4 enzyme assay (Alphascreen). In kind it is biochemical. The protocol: This assay detects inhibitors of EphB4-mediated phosphorylation of a polypeptide substrate using Alphascreen™ luminescence detection technology. Briefly, recombinant EphB4 was incubated with a biotinylated-polypeptide substrate (biotin-poly-GAT) in presence of magnesium-ATP. The reaction was stopped by addition of EDTA, together with streptavidin-coated donor beads which bind the biotin-substrate containing any phosphorylated tyrosine residues. Anti-phosphotyrosine antibodies present on acceptor beads bind to phosphorylated substrate, thus bringing the donor & acceptor beads into close proximity. Subsequent excitation of the donor beads at 680 nm generated singlet oxygen species that interact with a chemiluminescer on the acceptor beads, leading to light emission at 520-620 nm. The signal intensity is directly proportional to the level of substrate phosphorylation and thus inhibition is measured by a decrease in signal.
Assay plates were then incubated at room temperature for 1 hr. […] The plates were sealed under natural lighting conditions, wrapped in aluminium foil and incubated in the dark for a further 20 hrs.
The resulting assay signal was determined on the Perkin Elmer EnVision plate reader. The minimum value was subtracted from all values, and the signal plotted against compound concentration to generate IC50 data.
A general note: Alpha assays give light when donor and acceptor beads are brought close together.
On to `CN(c1cccc(Cl)c1)c1ccnc(Nc2cc(C(=O)NCC3CC3)cc(N3CCOCC3)c2)n1` [Example 19.16, 3-[[4-[(3-chlorophenyl)-methyl-amino]pyrimidin-2-yl]amino]-N-(cyclopropylmethyl)-5-morpholin-4-yl-benzamide], for which the IC50 stood at 1970 nM. In the case of `CN(c1ccnc(Nc2cc(N3CCOCC3)cc(N3CCOCC3)c2)n1)c1cccc(Cl)c1C#N` [Example 15.6, 2-chloro-6-[[2-[(3,5-dimorpholin-4-ylphenyl)amino]pyrimidin-4-yl]-methyl-amino]benzonitrile] it was 417 nM; in that of `CC(C)N(C)C(=O)c1cc(Nc2nccc(N(C)c3cccc(Cl)c3)n2)cc(N2CCOCC2)c1` [Example 19.8], 1450 nM.

On to `CN(c1cccc(F)c1)c1ccnc(Nc2cc(N3CCOCC3)cc(N3CCOCC3)c2)n1` [Example 10.5, N-(3,5-dimorpholin-4-ylphenyl)-N′-(3-fluorophenyl)-N′-methyl-pyrimidine-2,4-diamine], for which the IC50 was found to be 340 nM.

Turning to `CN(c1ccc(F)c(F)c1)c1ccnc(Nc2cc(N3CCOCC3)cc(N3CCOCC3)c2)n1` [Example 15.7, N′-(3,4-difluorophenyl)-N-(3,5-dimorpholin-4-ylphenyl)-N′-methyl-pyrimidine-2,4-diamine], the IC50 is 707 nM. As to `CN(c1ccnc(Nc2cc(C#N)cc(N3CCOCC3)c2)n1)c1ccc(F)c(Cl)c1F` [Example 2.5, 3-[[4-[(3-chloro-2,4-difluoro-phenyl)-methyl-amino]pyrimidin-2-yl]amino]-5-morpholin-4-yl-benzonitrile], the IC50 amounted to 937 nM. Consider `CN(c1ccnc(Nc2cc(N3CCOCC3)cc(N3CCOCC3)c2)n1)c1ccc(F)c(F)c1F` [Example 15.9, N-(3,5-dimorpholin-4-ylphenyl)-N′-methyl-N′-(2,3,4-trifluorophenyl)pyrimidine-2,4-diamine], for which the IC50 was 602 nM.

Regarding `CN(CCCO)C(=O)c1cc(Nc2nccc(N(C)c3cccc(Cl)c3)n2)cc(N2CCOCC2)c1` [Example 19.4, 3-[[4-[(3-chlorophenyl)-methyl-amino]pyrimidin-2-yl]amino]-N-(3-hydroxypropyl)-N-methyl-5-morpholin-4-yl-benzamide], the IC50 is 295 nM. For `CN1CCN(C(=O)c2cc(Nc3nccc(N(C)c4cccc(Cl)c4)n3)cc(N3CCOCC3)c2)CC1` [Example 19.11, [3-[[4-[(3-chlorophenyl)-methyl-amino]pyrimidin-2-yl]amino]-5-morpholin-4-yl-phenyl]-(4-methylpiperazin-1-yl)methanone], the IC50 worked out at 207 nM.

Turning to `Cc1ccc(N(C)c2ccnc(Nc3cc(N4CCOCC4)cc(N4CCOCC4)c3)n2)cc1` [Example 10.1, N-(3,5-dimorpholin-4-ylphenyl)-N′-methyl-N′-(4-methylphenyl)pyrimidine-2,4-diamine], the IC50 stood at 402 nM. With `CN1CCN(c2cc(Nc3nccc(N(C)c4ccc(F)c(Cl)c4F)n3)cc(N3CCOCC3)c2)CC1` [Example 5, N′-(3-chloro-2,4-difluoro-phenyl)-N′-methyl-N-[3-(4-methylpiperazin-1-yl)-5-morpholin-4-yl-phenyl]pyrimidine-2,4-diamine], the IC50 was found to be 424 nM. In the case of `CN1CCN(c2cc(Nc3nccc(N(C)c4ccc(F)c(Cl)c4F)n3)cc(S(C)(=O)=O)c2)CC1` [Example 3, N′-(3-chloro-2,4-difluoro-phenyl)-N′-methyl-N-[3-(4-methylpiperazin-1-yl)-5-methylsulfonyl-phenyl]pyrimidine-2,4-diamine] it was 65.1 nM; in that of `CCOc1cc(Nc2nccc(N(C)c3cc(CO)ccc3C)n2)cc(N2CCOCC2)c1` [Example 16, [3-[[2-[(3-ethoxy-5-morpholin-4-yl-phenyl)amino]pyrimidin-4-yl]-methyl-amino]-4-methyl-phenyl]methanol], 132 nM. As for `Cc1ccc(CO)cc1N(C)c1ccnc(Nc2cc(CO)cc(N3CCOCC3)c2)n1` [Example 7.13, [3-[[4-[[5-(hydroxymethyl)-2-methyl-phenyl]-methyl-amino]pyrimidin-2-yl]amino]-5-morpholin-4-yl-phenyl]methanol], the IC50 turned out to be 32.6 nM.

Consider `CN(c1ccnc(Nc2cc(N3CCOCC3)cc(N3CCOCC3)c2)n1)c1cccc(F)c1F` [Example 14, N′-(2,3-difluorophenyl)-N-(3,5-dimorpholin-4-ylphenyl)-N′-methyl-pyrimidine-2,4-diamine], for which the IC50 stood at 370 nM. In the case of `CCCOc1cc(Nc2nccc(N(C)c3cc(CO)ccc3C)n2)cc(N2CCOCC2)c1` [Example 17.1, [4-methyl-3-[methyl-[2-[(3-morpholin-4-yl-5-propoxy-phenyl)amino]pyrimidin-4-yl]amino]phenyl]methanol] it was 265 nM; in that of `C[C@H](CO)NC(=O)c1cc(Nc2nccc(N(C)c3cccc(Cl)c3)n2)cc(N2CCOCC2)c1` [Example 19.23, 3-[[4-[(3-chlorophenyl)-methyl-amino]pyrimidin-2-yl]amino]-N-[(2R)-1-hydroxypropan-2-yl]-5-morpholin-4-yl-benzamide], 1310 nM; in that of `CN(c1cccc(Cl)c1)c1ccnc(Nc2cc(C(=O)N3CCC(O)CC3)cc(N3CCOCC3)c2)n1` [Example 19.12, [3-[[4-[(3-chlorophenyl)-methyl-amino]pyrimidin-2-yl]amino]-5-morpholin-4-yl-phenyl]-(4-hydroxy-1-piperidyl) methanone], 234 nM. The value for `CN(c1cccc(C#N)c1)c1ccnc(Nc2cc(N3CCOCC3)cc(N3CCOCC3)c2)n1` [Example 10.10, 3-[[2-[(3,5-dimorpholin-4-ylphenyl)amino]pyrimidin-4-yl]-methyl-amino]benzonitrile] was 527 nM; that for `COc1ccc(N(C)c2ccnc(Nc3cc(N4CCOCC4)cc(N4CCOCC4)c3)n2)cc1Cl` [Example 15.14, N′-(3-chloro-4-methoxy-phenyl)-N-(3,5-dimorpholin-4-ylphenyl)-N′-methyl-pyrimidine-2,4-diamine] was 500 nM. As for `CN(c1ccnc(Nc2cc(N3CCOCC3)cc(N3CCOCC3)c2)n1)c1cccc(Cl)c1Cl` [Example 15.21, N′-(2,3-dichlorophenyl)-N-(3,5-dimorpholin-4-ylphenyl)-N′-methyl-pyrimidine-2,4-diamine], the IC50 is 1310 nM. In the case of `CN(c1ccc(Cl)c(Cl)c1)c1ccnc(Nc2cc(N3CCOCC3)cc(N3CCOCC3)c2)n1` [Example 10.11, N′-(3,4-dichlorophenyl)-N-(3,5-dimorpholin-4-ylphenyl)-N′-methyl-pyrimidine-2,4-diamine] it was 660 nM. In the case of `CN(c1cccc(Cl)c1)c1ccnc(Nc2cc(C(=O)N3CCCC3)cc(N3CCOCC3)c2)n1` [Example 19.9] it was 754 nM; in that of `Cc1ccc(CO)cc1N(C)c1ccnc(Nc2cc(C(=O)NCC3CC3)cc(N3CCOCC3)c2)n1` [Example 18.5, N-(cyclopropylmethyl)-3-[[4-[[5-(hydroxymethyl)-2-methyl-phenyl]-methyl-amino]pyrimidin-2-yl]amino]-5-morpholin-4-yl-benzamide], 477 nM. The value for `Cc1ccc(CO)cc1N(C)c1ccnc(Nc2cc(OCC(C)C)cc(N3CCOCC3)c2)n1` [Example 17.3, [4-methyl-3-[methyl-[2-[[3-(2-methylpropoxy)-5-morpholin-4-yl-phenyl]amino]pyrimidin-4-yl]amino]phenyl]methanol] was 1910 nM; that for `Cc1cccc(Cl)c1N(C)c1ccnc(Nc2cc(N3CCOCC3)cc(N3CCOCC3)c2)n1` [Example 15.20, N′-(2-chloro-6-methyl-phenyl)-N-(3,5-dimorpholin-4-ylphenyl)-N′-methyl-pyrimidine-2,4-diamine] was 1750 nM; that for `Cc1ccc(CO)cc1N(C)c1ccnc(Nc2cc(C(=O)N3CCCC3)cc(N3CCOCC3)c2)n1` [Example 18.2] was 62.3 nM. Take `COc1cccc(N(c2ccnc(Nc3cc(N4CCOCC4)cc(N4CCOCC4)c3)n2)C(C)C)c1` [Example 20, N2-(3,5-dimorpholinophenyl)-N4-isopropyl-N4-(3-methoxyphenyl)pyrimidine-2,4-diamine]: the IC50 was 912 nM.

`CN(c1ccnc(Nc2cc(N3CCOCC3)cc(S(C)(=O)=O)c2)n1)c1ccc(F)c(Cl)c1F` [Example 2.6, N′-(3-chloro-2,4-difluoro-phenyl)-N′-methyl-N-(3-methylsulfonyl-5-morpholin-4-yl-phenyl) pyrimidine-2,4-diamine]: the IC50 worked out at 447 nM. As for `CN(c1ccc(Cl)c(F)c1)c1ccnc(Nc2cc(N3CCOCC3)cc(N3CCOCC3)c2)n1` [Example 15.16, N′-(4-chloro-3-fluoro-phenyl)-N-(3,5-dimorpholin-4-ylphenyl)-N′-methyl-pyrimidine-2,4-diamine], the IC50 came out at 634 nM.

These data come from patent US20080242663A1, “NOVEL PYRIMIDINE DERIVATIVES 698” (ASTRAZENECA AB, priority 2007, published 2008).
